How the values were obtained:
isolated rabbit hearts = experiment: Controlled coronary occlusion in isolated perfused (Langendorff) rabbit hearts, infarct size as % of risk zone; conditions: for infarct size, % of the risk zone: control 33%
Method: New Zealand white rabbits were anesthetized with intravenous sodium pentobarbital (30 mg/kg). The trachea was intubated and mechanical ventilation was achieved. After a left thoracotomy, a snare was passed around the coronary artery and the hearts were excised quickly, mounted on a Langendorff apparatus and perfused at 75 mm Hg pressure with non-recirculating Krebs buffer containing 118.5 mM NaCl, 4.7 mM KCl, 1.2 mM MgSO4, 1.2 mM KH2 PO4, 24.8 mM NaHCO3, 2.5 mM CaCl2, and 10 mM glucose. The Krebs buffer was gassed with 95% O2 /5% CO2 resulting in a pH of 7.4-7.5. The temperature of the perfusate was maintained at 37° C.
A fluid-filled latex balloon connected to a transducer with PE240 tubing was inserted into the left ventricle. The balloon volume was adjusted to set the left ventricular diastolic pressure equal to 5-10 mm Hg at the beginning of the experiment. Total coronary artery flow was measured by timed collection of perfusate dripping from the heart with a graduated cylinder.
The coronary artery was occluded for 30 minutes and reperfused for 2 hours. Fostriecin was mixed with oxygenated perfusate in a separate reservoir to a concentration of 1 μM. Treatment was begun by opening the line from the drug-laden reservoir and closing the line from the reservoir containing pure buffer. After 2 hours of reperfusion, the coronary artery was re-occluded, and 1-10 μm zinc cadmium sulfide fluorescent particles (Duke Scientific, Palo Alto, Calif.) were infused into the perfusate to demarcate the risk zone. The heart was removed, weighed, frozen, and cut into 2 mm thick slices. The slices were thawed and stained by incubation for 20 minutes at 37° C. in 1% triphenyltetrazolium chloride (TTC) in pH 7.4 buffer. The areas of infarct (TTC negative) and risk zone (non-fluorescent under ultraviolet light) were determined by planimetry. Infarct and risk zone volumes were calculated by multiplying each area by the slice thickness and summing the products. Infarct size for each heart was expressed as a percentage of the risk zone infarcted. In an untreated rabbit heart approximately 33% of the ischemic tissue infarcts in this model.
Employing the well-characterized rabbit model described herein in Example 1, a controlled coronary occlusion was employed to induce reproducibly myocardial infarctions in isolated hearts. Defining the risk zone as the tissue normally supplied with oxygenated blood by the coronary artery before it is occluded, a 30 minute coronary occlusion produces an infarction that averages 33% of the risk zone (see data for control rabbits; FIG. 1). When the isolated hearts were treated with 1 μM fostriecin administered 15 minutes prior to the onset of ischemia and present during the 30 minute ischemic period, a significant decrease in infarct size to 9% of the risk zone was obtained (FIG. 1). This level of protection is equivalent to that seen in ischemic preconditioning (see Cohen M. V., et al., Cardiol. Rev. 3(3):137-49 (1995)), and represents a substantial decrease in the amount of myocardial tissue damaged.
Since the onset of a myocardial infarction usually cannot be predicted, a compound that provides protection when administered after the onset of ischemia is clinically far more useful than a compound that is effective only if administered before the coronary occlusion. […] The addition of 10 μM fostriecin 10 minutes after the onset of ischemia decreased infarction size to 19% of the risk zone. […]

isolated myocytes = experiment: Isolated myocyte simulated ischemia, osmotic fragility (trypan blue) index; format: cell-based, rabbit; conditions: 10 μM fostriecin added at onset of ischemia, 120 min; untreated cells 14.3
Method: Isolated Myocytes: Rabbit hearts were mounted on a perfusion apparatus as described above and perfused with "high potassium/low calcium" perfusion buffer containing 125 mM NaCl, 30 mM KCl, 25 mM NaHCO3, 1.2 mM KH2 PO4, 1 mg/ml BSA, 1.2 mM MgCl2, 11 mM glucose, 0.68 mM 1-glutamine, and a complete amino acid solution (pH 7.4) for 5 minutes. Collagenase (Worthington Biochemical, Freehold, N.J.) was added at a concentration of 1.25 mg/ml and the heart was perfused for 45-60 minutes until it became soft. The heart was removed from the apparatus and minced in 5 mls of perfusion buffer containing 0.1% w/v BSA. […] Cell counts and viability were assessed by removing 10 μl aliquots, mixing with an equal volume of Tyrode's solution containing 1% trypan blue, and counting within 3-5 minutes by light microscopy. […]
To simulate ischemia, the suspension was divided into 4-6 conical Eppendorf tubes and each tube was spun lightly to form a 0.2-0.5 ml pellet of packed cells. […] Within 5 minutes, at least 300 cells were examined with an inverted stage microscope from multiple areas of the slide, and the numbers of rounded and rod-shaped cells and those stained with trypan blue recorded. […]
The percentage of stained (dead) cells was determined, and a plot of % dead cells vs. time was constructed. An index of non-survival was calculated as the area under the curve after 2 hours and presented as %-hr. […]

[1] = system: a variety of protein kinases; experiment: Effect on protein kinases; format: biochemical

In the case of `CC(O)(/C=C/C1CC=CC(=O)O1)C(CC(O)\C=C/C=C\C=C\CO)OP(=O)(O)O` (stereo not shown) [fostriecin], the “infarct size, % of the risk zone” value (isolated rabbit hearts; 1 μM fostriecin from 15 minutes prior to ischemia and during 30-minute coronary occlusion) is reported as 9 % of the risk zone, the “infarct size, % of the risk zone” value (isolated rabbit hearts; 10 μM fostriecin added 10 minutes after onset of 30-minute ischemia) is reported as 19 % of the risk zone and the inhibition at 10 µM (isolated rabbit hearts; Oryctolagus cuniculus, 10 min, 10 μM fostriecin added 10 minutes after onset of ischemia, read-out: infarction smaller than in untreated hearts) is reported as 43%. For the same molecule, the hemodynamic effects (isolated rabbit hearts; isolated rabbit heart perfused with 1 μM fostriecin) was “No hemodynamic effects were observed”, the “concentration found to provide protection” value (isolated rabbit hearts; perfused rabbit hearts) was 1 to 10 µM and the “cell fragility index, area under the % trypan blue-positive cells vs time curve” value (isolated myocytes) was 10.6 %.cndot.hr. For the same molecule, the “effect on a variety of protein kinases” value [1] was “no effect”.

Source: US5914242A, “Method for diminishing myocardial infarction using protein phosphatase inhibitors” (priority 1997, dated 1999)
